Here are results for eight compounds from PubChem BioAssay (NCI).

Among the test systems are 786-0 renal; A498 renal; CAKI-1 renal; CCRF-CEM leukemia; DU-145 prostate; HCT-116 colon; MOLT-4 leukemia; SW-620 colon; TK-10 renal; UACC-257 melanoma.
What all share (test): inhibition of tumour cell growth, NCI panel, 48 h

Values joined by “and” are separate entries in the source; they are usually repeats but may differ in a detail not shown here. Equal entries are not always repeated.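 Interpolation was linear, between the two tested concentrations surrounding the appropriate level; five concentrations were tested over 48 hours in 96-well plates. Abbreviation: GI50, concentration required for 50% inhibition of growth. TGI: concentration producing complete growth inhibition.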

On to `COc1ccc2c(CN3CCC(CO)CC3)cc3cc4c(cc3c2c1)OCO4`, for which the GI50 was 0.227 µM in the assay with 786-0 renal; 211 nM in the assay on A498 renal; 0.289 µM in the assay with CAKI-1 renal; 250 nM in the assay on DU-145 prostate; 69 nM with HCT-116 colon; 175 nM in the assay with MOLT-4 leukemia. The GI50 in the assay on SW-620 colon is 141 nM; with TK-10 renal, 0.407 µM; in the assay on UACC-257 melanoma, 156 nM. Also, the TGI amounted to 4.65 µM in the assay with 786-0 renal; 0.554 µM in the assay with A498 renal; 3.42 µM in the assay with CAKI-1 renal; 0.373 µM with CCRF-CEM leukemia; 12.6 µM in the assay with DU-145 prostate; 0.529 µM with HCT-116 colon. For the same compound, the TGI in the assay on MOLT-4 leukemia stood at 1.44 µM; with SW-620 colon, 11 µM; in the assay with TK-10 renal, 8.65 µM; in the assay on UACC-257 melanoma, 0.393 µM.

In the case of `Cc1c(C(=O)N/N=C/c2ccc(O)cc2)nnn1-c1ccnc2c(C(F)(F)F)cccc12`, the GI50 in the assay with 786-0 renal is 44.4 µM; in the assay on A498 renal, 36600 nM; with CAKI-1 renal, greater than 100 µM; in the assay on CCRF-CEM leukemia, greater than 100000 nM; in the assay with DU-145 prostate, greater than 100000 nM; with HCT-116 colon, 50100 nM. For the same compound, the GI50 is greater than 100000 nM in the assay on MOLT-4 leukemia, greater than 100000 nM in the assay on SW-620 colon, greater than 100 µM in the assay on TK-10 renal and greater than 100000 nM with UACC-257 melanoma. Moreover, the TGI with 786-0 renal, in the assay with A498 renal, in the assay on CAKI-1 renal, in the assay on CCRF-CEM leukemia, in the assay with DU-145 prostate and with HCT-116 colon was greater than 100 µM throughout. Moreover, the TGI in the assay on MOLT-4 leukemia, in the assay with SW-620 colon, in the assay on TK-10 renal and in the assay on UACC-257 melanoma was greater than 100 µM each time.

As for `O=C(Oc1cccc(Nc2ncnc3ccccc23)c1)c1ccccc1Cl`, the GI50 was 20.8 µM in the assay with 786-0 renal; 23800 nM with A498 renal; 9.6 µM in the assay on CAKI-1 renal; 19300 nM in the assay with CCRF-CEM leukemia; 22300 nM in the assay on DU-145 prostate; 14700 nM with HCT-116 colon. In addition, the GI50 in the assay with MOLT-4 leukemia was greater than 100000 nM; with SW-620 colon, 21800 nM; in the assay on TK-10 renal it was 8.72 µM; in the assay on UACC-257 melanoma, 26600 nM. The TGI in the assay on 786-0 renal was 71.9 µM; with A498 renal, 49.4 µM; in the assay with CAKI-1 renal, 35.8 µM; in the assay with CCRF-CEM leukemia, 65.1 µM; in the assay with DU-145 prostate it was greater than 100 µM; in the assay on HCT-116 colon, 33 µM. Further, the TGI with MOLT-4 leukemia was greater than 100 µM; in the assay on SW-620 colon, 49.2 µM; with TK-10 renal, 37.8 µM; in the assay with UACC-257 melanoma, 57.1 µM.

Take `O=C1NC(=O)[C@@H](c2cn3c4c(cccc24)CCC3)[C@@H]1c1c[nH]c2ccccc12`: the GI50 with 786-0 renal was 0.544 µM and 0.809 µM; with A498 renal, 283 nM and 292 nM; with CAKI-1 renal, 0.332 µM and 0.518 µM; with CCRF-CEM leukemia, 288 nM and 429 nM; in the assay on DU-145 prostate, 417 nM and 442 nM; in the assay with HCT-116 colon it was 377 nM and 458 nM. For the same compound, the GI50 is 717 nM and 891 nM in the assay with MOLT-4 leukemia; 391 nM and 354 nM in the assay on SW-620 colon; 0.57 µM and 4.7 µM with TK-10 renal; 712 nM and 2510 nM in the assay on UACC-257 melanoma. Besides, the TGI in the assay with 786-0 renal is > 10 µM and 18.8 µM; in the assay with A498 renal it was > 2.68 µM and 3.22 µM; in the assay on CAKI-1 renal, > 10 µM and 31.4 µM; in the assay with CCRF-CEM leukemia it was > 10 µM and 41.2 µM; with DU-145 prostate it was > 10 µM and 6.81 µM; in the assay with HCT-116 colon, > 6.16 µM and 10.6 µM. The TGI with MOLT-4 leukemia is > 10 µM and 18.1 µM; with SW-620 colon, > 10 µM and 15.2 µM; with TK-10 renal, > 10 µM and 35.5 µM; in the assay with UACC-257 melanoma, > 10 µM and 29.8 µM.

Regarding `Cc1c(C(=O)CCl)c(=O)n(-c2ccccc2)n1C`, the GI50 in the assay on 786-0 renal is 10.7 µM; in the assay with A498 renal, 1240 nM; with CAKI-1 renal it was 3.2 µM; in the assay with CCRF-CEM leukemia, 1010 nM; in the assay on DU-145 prostate, 2220 nM; with HCT-116 colon it was 2860 nM. In addition, the GI50 in the assay on MOLT-4 leukemia was 2480 nM; with SW-620 colon, 2700 nM; with TK-10 renal, 3.81 µM; in the assay on UACC-257 melanoma, 2580 nM. The TGI in the assay on 786-0 renal is 24.3 µM; in the assay with A498 renal, 11 µM; in the assay with CAKI-1 renal, 12 µM; in the assay with CCRF-CEM leukemia, 4.82 µM; with DU-145 prostate it was 5.36 µM; in the assay on HCT-116 colon it was 10.4 µM. Further, the TGI in the assay with MOLT-4 leukemia is 11.5 µM; in the assay on SW-620 colon, 8.54 µM; in the assay with TK-10 renal it was 15.2 µM; in the assay on UACC-257 melanoma it was 16.3 µM.

As to `O=C(Nc1ncc([N+](=O)[O-])s1)c1cccc([N+](=O)[O-])c1`, the GI50 in the assay with 786-0 renal was 2.57 µM; in the assay on A498 renal, 2100 nM; with CAKI-1 renal, 3.7 µM; in the assay on CCRF-CEM leukemia, 2390 nM; in the assay on DU-145 prostate, 9890 nM; with HCT-116 colon, 2720 nM. Moreover, the GI50 in the assay with MOLT-4 leukemia is 3040 nM; in the assay on SW-620 colon, 6040 nM; with TK-10 renal it was 4.59 µM; in the assay on UACC-257 melanoma, 3190 nM. Besides, the TGI was greater than 92 µM in the assay with 786-0 renal; 24.5 µM in the assay with A498 renal; 22.7 µM with CAKI-1 renal; greater than 29.2 µM with CCRF-CEM leukemia; greater than 100 µM in the assay on DU-145 prostate; 16.5 µM with HCT-116 colon. Besides, the TGI is greater than 34.1 µM with MOLT-4 leukemia, greater than 100 µM in the assay on SW-620 colon, 37.3 µM in the assay on TK-10 renal and 13.8 µM in the assay on UACC-257 melanoma.

With `O=C1NC(=O)C2=C1CCC2O` (centres undefined), the TGI with 786-0 renal, in the assay with A498 renal, with CAKI-1 renal, with CCRF-CEM leukemia, in the assay with DU-145 prostate and in the assay with HCT-116 colon was greater than 100 µM each time. In addition, the TGI with MOLT-4 leukemia, with SW-620 colon, in the assay with TK-10 renal and with UACC-257 melanoma was greater than 100 µM in each case.

With `COc1cc(/C=C2\CC(C)CC3C2=NN(c2ccccc2)C3c2cc(OC)c(OC)c(OC)c2)cc(OC)c1OC` (centres undefined), the GI50 in the assay on 786-0 renal was 27 µM; with A498 renal, 13500 nM; in the assay on CAKI-1 renal, 26.7 µM; in the assay on CCRF-CEM leukemia, 7750 nM; in the assay on DU-145 prostate, 15400 nM; with HCT-116 colon, 6210 nM. The GI50 was 13000 nM in the assay with MOLT-4 leukemia, 10700 nM with SW-620 colon, 24.3 µM in the assay with TK-10 renal and 20400 nM with UACC-257 melanoma. In addition, the TGI in the assay with 786-0 renal is greater than 100 µM; with A498 renal, 42.5 µM; with CAKI-1 renal it was greater than 100 µM; with CCRF-CEM leukemia it was greater than 100 µM; in the assay on DU-145 prostate, 45.7 µM; in the assay on HCT-116 colon, 33.1 µM. Further, the TGI with MOLT-4 leukemia was greater than 100 µM; in the assay with SW-620 colon, 22.5 µM; in the assay with TK-10 renal, 93.3 µM; with UACC-257 melanoma, greater than 100 µM.
